According to patent publication US7413894B2, “TAG-1 and TAG-2 proteins and uses thereof” (University of Virginia Patent Foundation, priority 2003, dated 2008):

Assays:
[1] = target: T1, class I MHC molecule, HLA-A3 (Homo sapiens, UniProt P04439); test: Isolation of HLA-A3 associated peptides (immunoaffinity purification from VMM18 tumor cells); assay type: binding
T1 construct: endogenous in cells; host or cells: VMM18 melanoma tumor cells
Description: Immunoaffinity purification of class I MHC molecules from aliquots of 6-8×10^10 VMM18 tumor cells was performed as described (Hogan et al., 1998, Cancer Res 58, 5144-5150), except that the HLA-A3-specific monoclonal antibody GAP-A3, bound to protein A-Sepharose, was used to isolate the HLA-A3 molecules.
Peptide extracts were fractionated by RP-HPLC using an Applied Biosystems model 140B system. The extracts were concentrated by vacuum centrifugation and injected onto a Higgins (Mountain View, Calif.) C18 HAISIL column (2.1 mm×4 cm, 300 Å, 5 μm). The peptides were eluted with a gradient of acetonitrile/0.085% trifluoroacetic acid (TFA)* in 0.1% TFA/water, with the concentration of acetonitrile increasing from 0 to 9% (0 to 5 min), 9 to 36% (5 to 55 min), and 36 to 60% (55 to 62 min). Second dimension fractionations of selected first dimension (TFA) fractions were accomplished using the same gradient but with the substitution of heptafluorobutyric acid (HFBA) for TFA. A third dimension of RP-HPLC was achieved using an Eldex (Napa, Calif.) MicroPro pump, a homemade C18 microcapillary column and an Applied Biosystems model 785A UV absorbance detector. The column was made by packing a 27-cm bed of 10-μm C18 particles in a section of 285 μm o.d.×75 μm i.d. fused silica. […] In all RP-HPLC experiments, peptides were detected by monitoring UV absorbance at 214 nm.

[2] = system: C1R-A3 targets for lysis by VMM18 CTL; test: CTL epitope reconstitution assay (four-hour 51Cr-release); assay type: cell-based; conditions: active at concentrations as low as
Description: VMM18-specific CTL have been described previously (Skipper et al., 1996, J Immunol 157, 5027-5033). CTL were expanded in bulk culture using anti-CD3 antibody (Greenberg and Cheever, 1985, Surv Immunol Res 4, 283-296) and cryopreserved in aliquots of 1-5×10^7 cells for use in epitope reconstitution assays.
Aliquots of each RP-HPLC fraction were tested for the presence of peptides that could sensitize C1R-A3 targets for lysis by VMM18 CTL in standard four-hour 51Cr-release assays as previously described (Hogan et al., 1998, Cancer Res 58, 5144-5150).

T1 sequence (P04439 25-365): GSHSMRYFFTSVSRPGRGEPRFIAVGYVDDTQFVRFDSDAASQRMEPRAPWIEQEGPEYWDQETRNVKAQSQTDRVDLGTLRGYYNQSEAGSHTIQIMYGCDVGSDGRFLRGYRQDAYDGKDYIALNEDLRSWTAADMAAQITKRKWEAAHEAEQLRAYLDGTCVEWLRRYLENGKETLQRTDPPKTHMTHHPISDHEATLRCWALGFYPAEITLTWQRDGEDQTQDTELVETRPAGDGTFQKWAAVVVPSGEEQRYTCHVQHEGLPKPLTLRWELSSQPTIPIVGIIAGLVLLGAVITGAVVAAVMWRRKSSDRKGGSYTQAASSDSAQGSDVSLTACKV
T1 sequence (P61769 21-119 partner): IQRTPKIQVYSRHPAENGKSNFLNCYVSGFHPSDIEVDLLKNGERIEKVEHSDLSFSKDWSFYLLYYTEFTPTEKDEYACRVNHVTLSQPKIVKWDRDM

Row | Sequence | binding to HLA-A3 [1] | concentration at which the synthetic peptide is active in sensitizing C1R-A3 targets for lysis by VMM18 CTL [2] [pM]
1 | RLSNRLLLR (listed as Homo sapiens) | binds to the class I MHC molecule, HLA-A3 | ≤ 10
2 | SQNFPGSQK (listed as Homo sapiens) | – | ≤ 10
